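Growth conditions: 96-well plates. Treatment: test compound, 48 hours, 5 concentrations. Analysis: linear interpolation between bracketing concentrations; unreached endpoints set to highest concentration. GI50: concentration for 50% inhibition of growth. TGI denotes the concentration required for complete inhibition of growth.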
Assays:
Experiment in all cases: NCI tumour cell line growth inhibition, 48 h
RXF 393 renal = test system: RXF 393 renal
SW-620 colon = test system: SW-620 colon
DU-145 prostate = test system: DU-145 prostate
NCI-H522 lung = test system: NCI-H522 lung
UO-31 renal = test system: UO-31 renal
SK-MEL-28 melanoma = test system: SK-MEL-28 melanoma
T-47D breast = test system: T-47D breast
HCC-2998 colon = test system: HCC-2998 colon
HT29 colon = test system: HT29 colon
HL-60(TB) leukemia = test system: HL-60(TB) leukemia

| SMILES | TGI (RXF 393 renal) | TGI (SW-620 colon) | TGI (DU-145 prostate) | TGI (NCI-H522 lung) | TGI (UO-31 renal) | TGI (SK-MEL-28 melanoma) | TGI (T-47D breast) | TGI (HCC-2998 colon) | TGI (HT29 colon) | TGI (HL-60(TB) leukemia) | GI50 (RXF 393 renal) | GI50 (SW-620 colon) | GI50 (DU-145 prostate) | GI50 (HCC-2998 colon) | GI50 (NCI-H522 lung) | GI50 (HT29 colon) | GI50 (UO-31 renal) | GI50 (SK-MEL-28 melanoma) | GI50 (T-47D breast) | GI50 (HL-60(TB) leukemia) |
| --- | --- | --- | --- | --- | --- | --- | --- | --- | --- | --- | --- | --- | --- | --- | --- | --- | --- | --- | --- | --- |
| O=C1C=CC(O)C2C1CC13SSC4(CC5C(=O)C=CC(O)C5N4C1=O)C(=O)N23 (stereo not drawn) | 1.48 µM | 0.136 µM | 1.07 µM | 0.544 µM | 1.27 µM | 1.91 µM | 2.53 µM |  |  |  |  |  |  |  |  |  |  |  |  |  |
| NCCSCCc1ccccc1 | > 100 µM | > 100 µM | > 100 µM | > 100 µM | > 100 µM | > 100 µM | > 100 µM | > 100 µM | > 100 µM |  |  |  |  |  |  |  |  |  |  |  |
| CCOC(=O)C1=C(Nc2ccc(Cl)c(Cl)c2)OC/C1=N\NS(=O)(=O)c1ccc(C)cc1 | > 100 µM | > 100 µM |  | 74.8 µM | 85.6 µM | > 100 µM |  | > 100 µM |  | > 100 µM |  |  |  |  |  |  |  |  |  |  |
| Cc1cc(Cl)ccc1C1OC(=O)c2c1ccc1ccccc21 (stereo not drawn) |  | > 100 µM |  | > 100 µM | > 100 µM | > 100 µM |  | > 100 µM | > 100 µM | > 100 µM |  |  |  |  |  |  |  |  |  |  |
| C=C1[C@@H]([C@@]2(C)C=CC(=O)C(C)(C)[C@@H]2CC(=O)OC)CC[C@@]2(C)C(c3ccoc3)OC(=O)[C@H]3O[C@]132 (stereo partly drawn) |  | > 100 µM | > 100 µM | > 100 µM | > 100 µM | > 100 µM | > 100 µM | > 100 µM | > 100 µM | > 100 µM |  |  |  |  |  |  |  |  |  |  |
| O=C(NS(=O)(=O)c1ccccc1)C(Cc1ccccc1)C(Cc1ccccc1)C(=O)NS(=O)(=O)c1ccccc1 (stereo not drawn) | > 100 µM | > 100 µM |  | > 100 µM | > 100 µM | > 100 µM |  | > 100 µM | > 100 µM | > 100 µM |  |  |  |  |  |  |  |  |  |  |
| C=CCCCc1ccc(C(O)CCCCCCCCCCCC)o1 (stereo not drawn) | 39.3 µM | 62 µM | 35.4 µM | 29.7 µM | 30.3 µM | 50.6 µM | 34.6 µM | 55 µM | 35.4 µM |  | 19.6 µM | 22.8 µM | 19 µM | 22.1 µM | 15.3 µM | 17.1 µM | 16.3 µM | 20.6 µM | 15.1 µM |  |
| Nn1c(N=Nc2c(O)[nH]c3c(Cl)cc(Cl)cc23)n[nH]c1=S | > 100 µM | > 100 µM |  | > 100 µM | > 100 µM |  |  | > 100 µM | > 100 µM | > 100 µM |  |  |  |  |  |  |  |  |  |  |
| COc1ccc2c(c1OC)C(=O)c1cnccc1C2=O | > 100 µM | > 100 µM |  | > 100 µM | > 100 µM | > 100 µM |  | > 100 µM | > 100 µM | > 100 µM |  |  |  |  |  |  |  |  |  |  |
| Cc1cccc(C(C)(C)C)c1NC(=O)CC1Sc2ccccc2NC1=O (stereo not drawn) |  | 32.6 µM |  | > 100 µM | > 100 µM | > 100 µM |  | > 100 µM | > 100 µM | 89.9 µM |  |  |  |  |  |  |  |  |  |  |
| O=C1C=CC(CC(=O)c2ccc3ccccc3c2)O1 (stereo not drawn) | 36.6 µM | 49.5 µM |  |  | 39.2 µM | > 100 µM |  | 31.1 µM | 33.1 µM | 37.3 µM |  |  |  |  |  |  |  |  |  |  |
| C=CS(=O)(=O)CCN1CC1 |  | > 10 µM | > 10 µM | > 10 µM |  | > 10 µM | > 10 µM | > 10 µM | > 10 µM | > 10 µM |  |  |  |  |  |  |  |  |  |  |
| O=[N+]([O-])c1cccc(C2=NOC3C4CCC(C4)C23)c1 (stereo not drawn) |  | > 100 µM |  | > 100 µM | > 100 µM | > 100 µM |  | > 100 µM | > 100 µM |  |  |  |  |  |  |  |  |  |  |  |
| Cc1c(Sc2ccccc2)[n+](=O)c2cc(Cl)c(Cl)cc2n1[O-] | 90.1 µM | 96.1 µM | 44.8 µM | 57.7 µM | > 100 µM | > 100 µM | > 100 µM | > 100 µM | > 100 µM |  | 23.2 µM | 29.5 µM | 23.4 µM | 34.1 µM | 23.6 µM | 79.9 µM | > 100 µM | > 100 µM | 36.2 µM |  |
| CN(/N=N/c1nc(OCc2ccccc2)c2[nH]cnc2n1)C(=O)Oc1ccc([N+](=O)[O-])cc1 |  | 26.1 µM | 19.5 µM |  | 13.9 µM | > 50 µM | 32.7 µM |  |  | > 50 µM |  | 9.02 µM | 9.02 µM |  |  |  | 6.58 µM | 12.4 µM | 14.2 µM | 11.9 µM |
| O=C(O)c1ccccc1NC(=O)C1CCCCC1 |  | > 100 µM |  |  | > 100 µM | > 100 µM |  | > 100 µM | > 100 µM | > 100 µM |  |  |  |  |  |  |  |  |  |  |
| CCC(Oc1ccc(OC)c2ccccc(=O)c12)C(=O)O (stereo not drawn) | > 100 µM | > 100 µM |  | > 100 µM | > 100 µM | > 100 µM |  | > 100 µM | > 100 µM | > 100 µM |  |  |  |  |  |  |  |  |  |  |
| O=C(Nc1ccn(CCI)c(=O)n1)c1ccccc1 | > 100 µM | > 100 µM |  | > 100 µM | > 100 µM | > 100 µM |  |  | > 100 µM | > 100 µM |  |  |  |  |  |  |  |  |  |  |
| CCCCCCC(/C=N/O)C(C)(O)CCC (stereo not drawn) | > 100 µM | > 100 µM |  | > 100 µM | > 100 µM | > 100 µM |  | > 100 µM | > 100 µM | > 100 µM |  |  |  |  |  |  |  |  |  |  |
| COC(=O)C1=CC2OC1(C)CCC2=O (stereo not drawn) | > 100 µM | > 100 µM |  | > 100 µM | > 100 µM | > 100 µM |  | > 100 µM | > 100 µM | 80.4 µM |  |  |  |  |  |  |  |  |  |  |
| O=C1c2nc3n(c2C(=O)c2c1nc1n2CCC1)CCC3 | 9.59 µM | 17.2 µM |  | 19.5 µM | 37.4 µM | 31.3 µM |  | 21 µM | 10.8 µM | > 36.6 µM |  |  |  |  |  | 5.14 µM |  |  |  |  |
| O=C(NO)c1ccc(O)c(O)c1 | > 100 µM | > 100 µM |  | > 100 µM | > 100 µM | > 100 µM |  | > 100 µM | > 100 µM | 56 µM |  |  |  |  |  |  |  |  |  |  |
| O=S(=O)(C/C(=N\O)c1ccccc1)c1ccccc1 | > 100 µM | > 100 µM |  | > 100 µM | > 100 µM | > 100 µM |  | > 100 µM | > 100 µM | > 100 µM |  |  |  |  |  |  |  |  |  |  |
| O=[N+]([O-])c1ccc(Cl)cc1C1SCc2nc3ccccc3n21 (stereo not drawn) | 73.3 µM | > 100 µM |  | 80.1 µM | > 100 µM | > 100 µM |  | > 100 µM | > 100 µM | > 100 µM |  |  |  |  |  |  |  |  |  |  |
